From paper PMC9664868, “Dephospho-Coenzyme A Kinase Is an Exploitable Drug Target against Plasmodium falciparum: Identification of Selective Inhibitors by High-Throughput Screening of a Large Chemical Compound Library” (Antimicrobial Agents and Chemotherapy, 2022)
“Also recorded” adds a separate entry of the source.

Tests used:
[1] = biological target: T1, PfDPCK (Plasmodium falciparum, UniProt Q8IL34); assay: PfDPCK inhibition, enzyme-coupled fluorescence ADP detection assay (HTS and IC50 determination); assay type: biochemical; conditions: Table 2, PfDPCK inhibitor scaffolds Gr4, Gr5, Gr8; read-out: IC50
T1 sequence (Q8IL34 entry or part of it): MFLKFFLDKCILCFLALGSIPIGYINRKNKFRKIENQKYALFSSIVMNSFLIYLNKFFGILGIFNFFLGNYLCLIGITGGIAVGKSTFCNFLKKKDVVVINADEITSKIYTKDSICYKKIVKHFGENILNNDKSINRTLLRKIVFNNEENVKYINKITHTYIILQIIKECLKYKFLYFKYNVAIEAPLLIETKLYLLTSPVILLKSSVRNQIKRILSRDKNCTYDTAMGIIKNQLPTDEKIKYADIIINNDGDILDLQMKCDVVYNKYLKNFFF
Experimental: High-throughput screening against recombinant PfDPCK was performed using the Drug Discovery Initiative (DDI) full library, available from The University of Tokyo, composed of approximately 210,000 compounds. The primary assay was performed on 1,536-well white plate format with a final volume of 2 μL/well, containing 10 μM test compounds using a Multidrop Combi reagent dispenser (Thermo Fisher Scientific, Waltham, MA). The reaction was conducted in the assay buffer described above with 100 μM ATP and 50 μM dephospho-CoA. The assay was carried out at room temperature for 4 h in a closed plastic container with wet tissues. The reaction was stopped, and produced ADP was quantified using an enzyme-coupled fluorescence ADP detection assay, using PHERAstar microplate reader (BMG Labtech, Offenburg, Germany) with excitation at 540 nm and emission at 590 nm, as previously described ([17]). The inhibition level was calculated as the percentage inhibition of DPCK activity with each compound compared to the activity with only dimethyl sulfoxide (DMSO) as control (no inhibition) and that with no enzyme as 100% inhibition. IC50 values of the hit compounds were determined under the same assay conditions for the screening: Z′ factor, signal-to-background ratio (S/B), signal-to-noise ratio (S/N), and coefficient of variation (CV) were calculated to estimate the quality of screening system as previously described ([18], [38]).
The primary hits were reassayed in quadruplicate (n = 4) as in the primary screening. We next tested the confirmed secondary hits to exclude false positives that inhibit coupled fluorescence assay, but not PfDPCK. After exclusion of false positives, all tertiary hits were tested against human HsCOASY in the counterassay to exclude compounds that inhibit both PfDPCK and HsCOASY. The compounds showing >10% inhibition against HsCOASY were excluded from further studies. The IC50 values of the hit compounds were determined under the same assay conditions described as above for the primary screening, with the serially diluted compounds at 20, 10, 2.5, 0.5, and 0.1 μM at final concentrations. The assay was conducted in quadruplicate for each dilution, and IC50 values were calculated using GraphPad Software (San Diego, California USA).

[2] = biological target: T1, PfDPCK; assay: Mechanism of PfDPCK inhibition by Lineweaver-Burk plot; assay type: biochemical
Experimental: In order to understand the mechanism of PfDPCK inhibition of the identified compounds, we independently selected compounds from 359 PfDPCK-specific inhibitor candidates (showing >40% inhibition at 10 μM against PfDPCK), based on the more stringent criteria of >80% inhibition at 10 μM against PfDPCK and <10% inhibition against HsCOASY, to yield 30 hits. The hits were prioritized using a multiparameter optimization (MPO) scoring model, developed by MMV (https://www.optibrium.com/downloads/scoring-profiles/mmv-antimalarial-scoring-profile/) based on calculated physicochemical properties, including molecular weight, logP, hydrogen bond donors and acceptors, rotatable bonds, and structural alerts ([20], [21]). We finally chose six representative compounds (A-15, A-33, and A-69, shown in Table S1, and other three compounds; A-126, A-127, and A-128) by manual inspection with “chemist eye” for chemical attractiveness (druglikeness). […] Furthermore, two compounds, A-33 and A-69, are considered to be pan-assay interference compounds (PAINS) (phenolic Mannich base) ([22]). We consequently focused on two commercially available compounds (A-15 and A-127) (Fig. 6A) and investigated their mechanism of inhibition. We differentiated the type of inhibition by Lineweaver-Burk plot with various concentrations of one substrate (dephospho-CoA or ATP), while the other substrate was given in saturating concentrations in kinetic studies (Fig. 5).
FIG 5 Lineweaver-Burk plots showing inhibition of two compounds, compound A-15 (A, B) and compound A-127 (C, D) on the PfDPCK activity. The enzymatic activities were determined with various concentrations of dephospho-CoA and 200 μM ATP (A, C) or various concentrations of ATP and 200 μM dephospho-CoA (B, D) in the presence of a range of concentrations of inhibitors. Data are shown in means ± SEMs of triplicate.
PfDPCK and HsCOASY activity was measured by quantifying ADP produced in the reaction by a coupling assay using the ADP Hunter Plus assay kit (DiscoverX, USA) according to the manufacturer's instructions. Briefly, enzymatic reactions were carried out in a 20-μL mixture of assay buffer containing 15 mM HEPES, 20 mM NaCl, 1 mM EGTA, 0.02% Tween 20, 10 mM MgCl2, 0.1% bovine gamma globulin, 50 ng of recombinant PfDPCK or HsCOASY, 4 to 256 μM dephospho-CoA, and 5 to 300 μM ATP on a black microplate. All reactions were performed for 2 h, reagents A and B were added, and they were then reincubated for 60 min at 30°C. After reactions were terminated by addition of ADP Hunter Stop solution, the fluorescent signal was measured using SpectraMax Paradigm (Molecular Devices, CA, USA) at excitation and emission wavelengths of 530 and 590 nm, respectively. The kinetic parameters were calculated using the nonlinear regression function using the single saturating concentrations of the substrates by the GraphPad Prism software (GraphPad Software Inc., San Diego, CA). The experiments were repeated three times in triplicate using proteins purified from independent cultures. Kinetic values of enzymes are presented as the means ± standard errors (SEs).

[3] = system: P. falciparum drug-sensitive 3D7 strain; assay: Erythrocytic-stage parasite growth inhibition, diaphorase-coupled LDH assay, 3D7; assay type: cell-based, Plasmodium falciparum; conditions: Plasmodium falciparum, 3D7; Table S1; means ± SEM; read-out: IC50 (μM) Pf cell 3D7
Experimental: Selected hit compounds were also tested against erythrocytic-stage parasites of P. falciparum drug-sensitive 3D7 and drug-resistant Dd2 strains ([39]). For the phenotypic assay, parasite cultures were synchronized with 5% (wt/vol) D-sorbitol as previously described ([40]). A synchronized culture containing ring-stage parasites of 0.3% parasitemia was initiated with a culture volume of 25 μL/well on a 384-well plate. A series of diluted compounds (at final concentrations of 50, 10, 2, 0.4, and 0.08 μM) were used to calculate IC50 values. Mefloquine at 50 μM and atovaquone at 20 μM were used as no-growth control (100% inhibition). After 72 h of incubation, parasite growth was measured by diaphorase-coupled lactate dehydrogenase (LDH) assay as previously described ([41]). Absorbance at 650 nm was measured using SpectraMax Paradigm multimode microplate reader (Molecular Devices, San Jose, CA, USA). The IC50 values were calculated as described above.

**Q.** What does the source list for CC(C)(C)c1cc(C(=O)Cn2c(NCCO)nc3ccccc32)cc(C(C)(C)C)c1O [Compound A-15]?
**A.** IC50 [1]: 1.93 ± 0.04 µM; Ki ([2]; in respect of ATP, 200 μM dephospho-CoA): 10.4 µM; type of inhibition ([2]; in respect of dephospho-CoA and ATP, Lineweaver-Burk plot): competitively inhibits; also recorded: competitive inhibition; Ki ([2]; in respect of dephospho-CoA, 200 μM ATP): 0.47 µM; IC50 [3]: 9.78 ± 0.23 µM
